Laboratory results as given in patent US9206193B2, “Substituted norindenoisoquinolines, syntheses thereof, and methods of use” (PURDUE RESEARCH FOUNDATION, priority 2010, dated 2015).
Like-named read-outs stand apart in the source and are kept apart here.

Legend:
HOP-62 = experiment: NCI DTP antiproliferative screen, lung HOP-62; assay type: cell-based, human
Protocol: (§1) The norindenoisoquinolines are examined for antiproliferative activity in the National Cancer Institute's Developmental Therapeutics Program (DTP) (Boyd & Paull, Some Practical Considerations and Applications of the National Cancer Institute In Vitro Anticancer Drug Discovery Screen. Drug Development Res. 1995, 34, 91-109; Shoemaker, The NCI60 Human Tumour Cell Line Anticancer Drug screen. Nat. Rev. Cancer 2006, 6, 813-823). Each compound is evaluated against approximately 55 human cell lines representing leukemia, melanoma, and cancers of the lung, colon, brain, breast, ovary, prostate and kidney. After an initial one-dose assay at a single high dose (10^−5 M), only compounds that satisfy the pre-determined threshold inhibition criteria are selected for further 5-dose assay.

HCT-116 = experiment: NCI DTP antiproliferative screen, colon HCT-116; assay type: cell-based, human
Protocol: as §1

SF-539 = experiment: NCI DTP antiproliferative screen, CNS SF-539; assay type: cell-based, human
Protocol: as §1

UACC-62 = experiment: NCI DTP antiproliferative screen, melanoma UACC-62; assay type: cell-based, human
Protocol: as §1

OVCAR-3 = experiment: NCI DTP antiproliferative screen, ovarian OVCAR-3; assay type: cell-based, human
Protocol: as §1

SN12C = experiment: NCI DTP antiproliferative screen, renal SN12C; assay type: cell-based, human
Protocol: as §1

DU-145 = experiment: NCI DTP antiproliferative screen, prostate DU-145; assay type: cell-based, human
Protocol: as §1

[1] = system: all human cancer cell lines successfully tested; experiment: NCI DTP antiproliferative screen, mean graph midpoint; assay type: cell-based; details: average GI50 of all cell lines tested; values outside 10^-8 to 10^-4 M taken as the limits
Protocol: as §1

SR = experiment: NCI DTP antiproliferative screen, leukemia SR; assay type: cell-based, human
Protocol: as §1

NCI-H460 = experiment: NCI DTP antiproliferative screen, non-small cell lung cancer NCI-H460; assay type: cell-based, human
Protocol: as §1

IGROVI = experiment: NCI DTP antiproliferative screen, ovarian cancer IGROVI; assay type: cell-based, human
Protocol: as §1

MCF7 = experiment: NCI DTP antiproliferative screen, breast cancer MCF7; assay type: cell-based, human
Protocol: as §1

HCC-2998 = experiment: NCI DTP antiproliferative screen, colon cancer HCC-2998; assay type: cell-based, human
Protocol: as §1

COLO 205 = experiment: NCI DTP antiproliferative screen, colon cancer COLO 205; assay type: cell-based, human
Protocol: as §1

CAKI-1 = experiment: NCI DTP antiproliferative screen, renal cancer CAKI-1; assay type: cell-based, human
Protocol: as §1

ACHN = experiment: NCI DTP antiproliferative screen, renal cancer ACHN; assay type: cell-based, human
Protocol: as §1

U251 = experiment: NCI DTP antiproliferative screen, CNS cancer U251; assay type: cell-based, human
Protocol: as §1

SF-295 = experiment: NCI DTP antiproliferative screen, CNS cancer SF-295; assay type: cell-based, human
Protocol: as §1

CCRF-CEM = experiment: NCI DTP antiproliferative screen, leukemia CCRF-CEM; assay type: cell-based, human; details: read-out: GI50 against leukemia CCRF-CEM
Protocol: as §1

RPMI-8226 = experiment: NCI DTP antiproliferative screen, leukemia RPMI-8226; assay type: cell-based, human; details: read-out: GI50 against leukemia RPMI-8226
Protocol: as §1

MOLT-4 = experiment: NCI DTP antiproliferative screen, leukemia MOLT-4; assay type: cell-based, human; details: read-out: GI50 against leukemia MOLT-4
Protocol: as §1

COc1cc2cnc3c(c2cc1OC)Cc1c-3cc2c(c1Cn1ccnc1)OCO2 [Compound 14c, 2,3-Dimethoxy-8,9-methylenedioxy-10-(1H-imidazol-yl)methyl-11H-indeno[1,2-c]isoquinoline] showed a GI50 (HOP-62) of 350 nM, a GI50 (HCT-116) of 160 nM and a GI50 (SF-539) of 280 nM. It also gave a GI50 (UACC-62) of 210 nM, a GI50 (UACC-62; 1st run, read-out: GI50 Melanoma UACC-62) of 210 nM and a GI50 (UACC-62; 2nd run, read-out: GI50 Melanoma UACC-62) of 180 nM. For the same compound, the GI50 (UACC-62; Mean of runs, read-out: GI50 Melanoma UACC-62) was 200 nM, the GI50 (OVCAR-3) was 210 nM and the GI50 (SN12C) was 600 nM. For the same compound, the GI50 (DU-145) was 260 nM, the GI50 (DU-145; 1st run, read-out: GI50 Prostate Cancer DU-145) was 260 nM and the GI50 (DU-145; 2nd run, read-out: GI50 Prostate Cancer DU-145) was 410 nM. The GI50 (DU-145; Mean of runs, read-out: GI50 Prostate Cancer DU-145) was 330 nM, the “MGM (mean graph midpoint for growth inhibition)” value [1] was 0.52 µM and the GI50 (SR; 1st run, read-out: GI50 Leukemia SR) was 12 nM. It also gave a GI50 (SR; Mean of runs, read-out: GI50 Leukemia SR) of 12 nM, a GI50 (SR; read-out: GI50 against leukemia SR) of 12 nM and a GI50 (NCI-H460; 1st run) of 160 nM. The GI50 (NCI-H460; 2nd run) was 110 nM, the GI50 (NCI-H460; Mean of runs) was 130 nM and the GI50 (IGROVI; 1st run, read-out: GI50 Ovarian Cancer IGROVI) was 33 nM. For the same compound, the GI50 (IGROVI; 2nd run, read-out: GI50 Ovarian Cancer IGROVI) was 210 nM, the GI50 (IGROVI; Mean of runs, read-out: GI50 Ovarian Cancer IGROVI) was 120 nM and the GI50 (IGROVI; read-out: GI50 against human ovarian cancer cell IGROVI) was 121 nM. For the same compound, the GI50 (MCF7; 1st run, read-out: GI50 Breast Cancer MCF7) was 90 nM, the GI50 (MCF7; 2nd run, read-out: GI50 Breast Cancer MCF7) was 89 nM and the GI50 (MCF7; Mean of runs, read-out: GI50 Breast Cancer MCF7) was 90 nM. For the same compound, the GI50 (MCF7; read-out: GI50 against human breast cancer cell MCF-7) was 90 nM, the GI50 (HCC-2998; 1st run) was 110 nM and the GI50 (HCC-2998; 2nd run) was 2100 nM. It also gave a GI50 (HCC-2998; Mean of runs) of 1100 nM, a GI50 (COLO 205; 1st run) of 760 nM and a GI50 (COLO 205; 2nd run) of 280 nM. For the same compound, the GI50 (COLO 205; Mean of runs) was 510 nM, the GI50 (CAKI-1; 1st run) was 170 nM and the GI50 (CAKI-1; 2nd run) was 400 nM. For the same compound, the GI50 (CAKI-1; Mean of runs) was 290 nM, the GI50 (ACHN; 1st run) was 270 nM and the GI50 (ACHN; 2nd run) was 300 nM. The GI50 (ACHN; Mean of runs) was 280 nM, the GI50 (U251; 1st run) was 150 nM and the GI50 (U251; 2nd run) was 170 nM. It also gave a GI50 (U251; Mean of runs) of 160 nM, a GI50 (SF-295; 1st run) of 160 nM and a GI50 (SF-295; 2nd run) of 130 nM. For the same compound, the GI50 (SF-295; Mean of runs) was 150 nM, the GI50 (CCRF-CEM) was 37 nM and the GI50 (RPMI-8226) was 41 nM. It also gave a GI50 (MOLT-4) of 60 nM.
